Experimental data taken from PMC8880313, “Discovery of Novel Andrographolide Derivatives as Antiviral Inhibitors against Human Enterovirus A71” (Pharmaceuticals, 2022).

Tests used:
[1] = Cell viability assay (alamarBlue); type: cell-based, human; conditions: human, RD cells
Protocol: (§1) Firstly, we performed cell viability assay to evaluate the cytotoxicity profile of the 19 hits. Cells seeded overnight were treated with the hit compounds at 10 µM. […] Anti-EV-A71 activity of AGP-253 had been illustrated and discussed previously. We were particularly interested in ZAF-46 and ZAF-47 as they belonged to the same series bearing novel 14-quinolinoxy and 17-hydro-8,9-olefin modifications (Figure 2b) that could potentially open up new targets for EV-A71 therapeutics. Additional cell viability assays were performed for ZAF-46 and ZAF-47 at different concentrations to identify the low cytotoxic concentrations for downstream post-treatment assays. For post-treatment assays, cells seeded overnight were infected with EV-A71 and subsequently treated with ZAF-46 and ZAF-47 at different concentrations. […] Treatment with ZAF-46 led to 1.4 log reduction at 10 µM and 2.4 log reduction at 20 µM (Figure 2c) while treatment with ZAF-47 led to 0.8 log reduction at 5 µM, 1.1 log reduction at 10 µM and 2.1 log reduction at 20 µM (Figure 2d). CC50 and IC50 for both compounds were determined and used to derive their SI (Table 2). ZAF-47 was selected for further downstream analysis due to its higher SI value which indicate higher pharmacological value for clinical use.
(§2) To determine the cytotoxicity profiles of the hits, cell viability assay was performed. Seeded 96-well plates, with 2 × 10^4 RD cells per well, were incubated overnight at 37 °C with 5% CO2. Different concentrations of drug hits, diluted by reduced serum DMEM, were used to treat the seeded cells for 12 h at 37 °C with 5% CO2. Reduced serum DMEM, was employed as the negative control and 0.1% DMSO as the vehicle control for this step. Subsequently, the supernatant was replaced with alamarBlue^TM Cell Viability Reagent (Thermo Fisher Scientific, Waltham, MA, USA) (100 µL), diluted 10-fold in reduced serum DMEM, and incubated for 3 h at 37 °C with 5% CO2. Fluorescence intensity in each well was measured at 570 nm excitation wavelength and 600 nm emission wavelength in each well by the Infinite^TM 200 series microplate reader (Tecan, Männedorf, Switzerland) and normaliszd with the negative control to determine the relative cell viability.

RD cells = assay: Cell viability assay (alamarBlue); type: cell-based, human; conditions: 10 µM, 12 h
Protocol: as §1, §2

EV-A71 = assay: Immunofluorescence-based preliminary screen of EV-A71-infected RD cells; type: cell-based, human enterovirus A71 (EV-A71) strain 41; conditions: EV-A71-infected RD cells (MOI = 1)
Description: The screening assay was built using an immunofluorescence approach that was previously established and validated, with DAPI-stained nuclei accounting for total cell count and FITC-stained EV-A71 accounting for infected cell count upon EV-A71 infection and compound treatment. Both cell counts would then be used to calculate percentage infection and percentage inhibition to identify for hits. Before the screening platform can be employed to screen for potential antivirals, its robustness has to be appraised. In this study, Z-factor was calculated to assess the robustness of the screening platform. Firstly, seeded RD cells were either infected with EV-A71 (Multiplicity of Infection of 1) or mock-infected with media. The cells were then fixed, stained and imaged 12 h post-infection (hpi). The IFA images were analyzed with the Cell Profiler software to determine the infection rate of each well. Between the virus-infected and mock-infected wells, a clear distinction in infection rates could be observed (Figure 1a). […] In this case, the Z-factor, measured at 0.818, was indicative of a highly robust screening platform for high-throughput screening. The constructed screening platform was then employed to screen the compound library made up of 344 chemically synthesized novel compounds analogous to andrographolide. The compounds were screened at 10 µM with IFA images taken and analyzed to identify for hits. Treatment with 0.1% DMSO was used as vehicle control.
Seeded 96-well plates (Corning Inc., Corning, NY, USA), with 2 × 10^4 RD cells per well, were incubated overnight at 37 °C with 5% CO2. The seeded cells were then infected with EV-A71 (50 µL per well, MOI = 1) for 1 h at 37 °C with 5% CO2. The EV-A71-infected cells were then treated with the compound library at a final concentration of 10 µM for 12 h at 37 °C with 5% CO2. Treatment with 0.1% DMSO was used as vehicle control. Following treatment, cells were fixed with 100 µL of methanol (Sinopharm Chemical, Shanghai, China) for 15 min at −20°C and rinsed with 100 µL of 1x PBS for three times before performing indirect immunofluorescence assay (IFA). Anti-EV-A71 VP2 1° antibodies, MAB979 (Merck Millipore, Burlington, VT, USA), diluted 500-fold in PBS, was incubated with the fixed cells for 1 h at 37 °C. Cells were then rinsed thrice with PBS and incubated with anti-mouse FITC 2° antibodies (Merck Millipore), diluted 200-fold in PBS, for 1 h at 37 °C. After which, the cells were rinsed thrice with PBS before staining with DAPI (Sigma-Aldrich) at room temperature for 15 min. Cells were then rinsed thrice and preserved in 100 µL of PBS before imaging with the Operetta High-Content Imaging System and the Harmony High-Content Imaging and Analysis Software (Perkin Elmer, Waltham, MA, USA). Images of stained cells were captured with the DAPI and FITC fluorescence filters, from a pre-determined central position of each well and processed with the Cell Profiler software. […] The percentage infection (PI) for each well was calculated using the formula: Infected cell count/Total cell count × 100%. The percentage inhibition for each well was calculated using the formula PI0− PI/PI0 × 100% where PI0 refers to the percentage infection of wells treated with the vehicle control while PI refers to the percentage infection of wells treated with the compounds.

CC(=O)OC[C@]1(C)C(=O)CC[C@@]2(C)C(C/C=C3/C(=O)OC[C@@H]3Oc3cccc4cccnc34)=C(C)CC[C@@H]21 [ZAF-47, (14β)-(8′-Quinolinoxy)-3-ketone-9-dehydro-17-hydro-19-acetoxy–andrographolide]
CC50 at 12 h [1]: 29.6 µM
cytotoxicity (RD cells): low cytotoxicity
Nuclei Count (EV-A71; 10 µM, 12 h, 0.1% DMSO wells 998): 955
inhibition at 10 µM (EV-A71; Enterovirus A, EVA71, 12 h, read-out: Inhibition Rate (%)): 77.1%
